According to article PMC8308721 (Pharmaceutics, 2021):
Several values for one entry are separate records, joined by “and”; a condition that tells them apart may be missing. Identical values can stand only once. Entries after “also recorded” stand apart in the source; their conditions may differ.

Experiments:
[1] = Peptide stability in mouse plasma (UPLC); assay type: in vitro ADME; conditions: for Recovered Peptide after 1 h in Mouse Plasma [%]: CD-1 mouse plasma, 37 °C, esters recovered as the corresponding acid
Procedure: (§1) The in vitro stability of peptides was assessed according to a previously described protocol with modifications. Peptides (3 g/L, 49 µL) dissolved in […] (DMSO/TWEEN 80/normal saline (5/5/90, v/v/v) were diluted with pooled mouse dipotassium ethylenediaminetetraacetic acid containing pooled plasma (Innovative Research, Novi, MI, USA) or pooled human cerebrospinal fluid (CSF) (both BioIVT, Westbury, NY, USA) to a total volume of 500 µL. The final peptide concentration was kept constant at 315 µmol/L in all experiments. The mixture was incubated (37 °C, 750 rpm; Thermomixer, Eppendorf AG, Hamburg, Germany) and an aliquot (95 µL) was taken at 0, 5, 15, 60, and 300 min. For peptide quantification, the sample was mixed with aqueous acetonitrile (90%, v/v, 300 µL) containing FA, 0.1% v/v and incubated on ice for 30 min. After two centrifugation steps (21,100× g, 3 min, Sorvall Legend Micro 21R Centrifuge, Thermo Scientific, Waltham, MA, USA), the supernatant (300 µL) was collected, freeze-dried (FreeZone Triad Cascade Benchtop, Labcono, Kansas City, MO, USA), reconstituted in aqueous acetonitrile (4.5%, v/v) containing FA (0.1%, v/v), and stored at −20 °C. Samples were analyzed by ultra-performance liquid chromatography (UPLC).
An ACQUITY UPLC H-Class chromatography system (Waters, Milford, MA, USA) coupled on-line to a photodiode array detector (absorbance recorded at 214 nm, Waters) and to the electrospray ionization source on a mass spectrometer (QDa detector, Waters) operated in the positive ion mode was used. Separation relied on a BEH-C18 column (inner diameter: 1.1 mm; length: 50 mm; particle size: 1.7 µm, Waters) at a flow rate of 0.1 mL/min using a linear aqueous acetonitrile gradient in the presence of FA (0.1%, v/v). Ionization was carried out at a source temperature of 450 °C using a cone voltage of 10 V and a capillary voltage of 1.5 kV. Mass spectra were typically acquired for an m/z range from 50 to 1250 at a sampling rate of 2 points per second. Quantities of the degraded peptides and resulting metabolites were estimated using peak areas of the UV signal at 214 nm relative to the initial peak areas (t = 0). Metabolites were identified using mass spectrometry by detecting the singly charged molecular ions.

female CD-1 mice [2] = experiment: Hot-plate test; assay type: in vivo, mouse; conditions: for Antinociception (AUC0-5h, %MPE·h): s.c. 20 µmol/kg (~13 mg/kg), female CD-1 mice
Procedure: Animal use and procedures were in accordance with the guidelines of The University of British Columbia animal care committee and the Canadian Council for Animal Care (CCAC, Protocol code: A17-0128, approval date: 30 August 2018). Experiments involved adult female CD-1 mice (25–30 g) housed under a 12 h light/dark cycle and had ad libitum access to rodent chow and water. Mice were allowed an acclimatization period of at least one week in the animal facility before experiments. Subcutaneous (s.c.) or intraperitoneal (i.p.) injections of drugs or vehicles were administered to animals at a volume of 10 mL/kg. In the formalin foot assay, each mouse was used once and euthanized immediately upon completion of the experiment due to irreversible tissue damage in the injected paw.
(§2) A commercially available hot-plate analgesia meter consisting of a round aluminum surface with (25 cm diameter) from Harvard Apparatus (Holliston, MA, USA) was used. A day before the experiment mice were acclimatized for 5 min in a transparent Plexiglas cylinder (height, 30 cm; diameter, 25 cm) on the switched-off hot-plate apparatus. Thereafter, the baseline latency of each animal was measured on the hot surface (52.0 ± 0.1 °C, 30 s cut-off time to prevent tissue damage) until a nociceptive response was induced. The animal was immediately removed from the hot surface after licking, lifting, or fluttering of the hind paws was observed. Latency responses after treatment were obtained in the same way. The %MPE for each animal was calculated using this equation: %MPE = (LR − BR)/(MR − BR)100%, where LR, MR, and BR represent measured, maximum (30 s), and baseline (~5 s) response time, respectively. The AUC for each animal was calculated from the %MPE time courses using this equation: AUC = (%MPE(Tp1) + %MPE(Tp2))·(Tp2 − Tp1)/2, where Tp represents the time interval between adjacent time points on the curve. Data were plotted as mean ± SEM.

[3] = Peptide stability in human cerebrospinal fluid (UPLC); assay type: in vitro ADME; conditions: pooled human cerebrospinal fluid, pooled human CSF, read-out: peptide recovered in CSF after 5 h of incubation
Procedure: as §1, with “After two centrifugation steps (21,100× g, 3 min, Sorvall Legend Micro 21R Centrifuge, Thermo Scientific, Waltham, MA, USA), the supernatant (300 µL) was collected, freeze-dried (FreeZone Triad Cascade Benchtop, Labcono, Kansas City, MO, USA), reconstituted in aqueous acetonitrile (4.5%, v/v) containing FA (0.1%, v/v), and stored at −20 °C.” left out
An ACQUITY UPLC H-Class chromatography system (Waters, Milford, MA, USA) coupled on-line to a photodiode array detector (absorbance recorded at 214 nm, Waters) and to the electrospray ionization source on a mass spectrometer (QDa detector, Waters) operated in the positive ion mode was used. […] Quantities of the degraded peptides and resulting metabolites were estimated using peak areas of the UV signal at 214 nm relative to the initial peak areas (t = 0). […]

C57BL6 mice = conditions: cited from earlier work
female CD-1 mice [4] = experiment: Respiratory depression assay; assay type: in vivo, mouse
Procedure: The respiratory rate was assessed in awake mice lightly restrained in a well-ventilated 50 mL falcon tube with a darkened tip. Prior to the drug treatment, each animal was habituated in the tube for 30 min. The falcon tube was secured onto a stand facing lengthwise towards a video camera. […] Animals were recorded at selected time points for 10 min to measure the respiration rate.

[5] = day six of treatment; cited from earlier work
mice = conditions: mouse, in vivo; cited from earlier work
female CD-1 mice [6] = experiment: Dependence study, Nlx-induced jumps; conditions: 8 days, Nlx 4 mg/kg i.p.
Procedure: Two hours after the last injection at 3 PM, mice received an i.p. injection of Nlx (4 mg/kg), after which they were immediately placed in a Plexiglas cylinder (height, 30 cm; diameter, 25 cm). The number of jumps induced by Nlx, defined as simultaneous removal of all four paws from the ground surface, were counted.

female CD-1 mice [7] = experiment: Formalin foot assay; assay type: in vivo, mouse; conditions: morphine 10 mg/kg s.c.
Procedure: On the day of the experiment, mice were acclimatized to the experimental setup by putting them in darkened, non-transparent plexiglas cylinders (height, 20 cm; diameter, 9 cm) placed on a glass plane for 2 h. […] After successful injection, mice were immediately placed into cylinders and their behavior was monitored for 1 h. Video cameras (Lorex Technology, Markham, ON, Canada) underneath each animal were used to record the nociceptive responses defined as licking or biting at the formalin injected right paw. The accumulated licking and biting time of each animal was determined and recorded in 5 min bins. The total response time was plotted as early phase 1 from 0 to 5 min, and late phase 2 from 20 to 40 min after formalin injection.

[8] = pooled mouse dipotassium ethylenediaminetetraacetic acid containing pooled plasma; conditions: 37 °C, up to 300 min
plasma = conditions: cited from earlier work
human DOR = biological target: T1, human DOR (Homo sapiens, UniProt P41143); experiment: Competitive radioligand ([3H]DADLE) displacement assay at DOR; assay type: binding; conditions: analog at 6 nM
T1 construct: host or cells: COS-1 cells
Procedure: The binding affinity of peptides to the DOR was performed by Eurofins Cerep SA (Celle-Lévescault, France) using a competitive radioligand displacement assay according to a previously described method.

female CD-1 mice [9] = experiment: Tolerance study, hot-plate after repeated dosing; assay type: in vivo, mouse; conditions: multidose tolerance and physical dependence tests, 5-point scale
Description: (§3) Throughout the eight-day duration of experiments investigating the development of physical dependence and tolerance, clinical health scores (CHS) of mice on a 5-point scale (0 normal and 5 highest severity) provided by the University of British Columbia Animal Care Committee were monitored. Scores were given in 5 categories (appearance (grooming, posture), behavior (gait, activity), local injection site skin appearance, neurological signs, and body weight). Based on the guidelines, mice with a score of 5 in any category or a cumulative score of >15, or body weight loss of >20% would be euthanized.
as §2, with “A day before the experiment mice were acclimatized for 5 min in a transparent Plexiglas cylinder (height, 30 cm; diameter, 25 cm) on the switched-off hot-plate apparatus.” left out, “The animal was immediately removed from the hot surface after licking, lifting, or fluttering of the hind paws was observed. Latency responses after treatment were obtained in the same way.” left out, “Data were plotted as mean ± SEM.” left out

female CD-1 mice [10] = experiment: Safety test in mice, escalating doses; assay type: in vivo, mouse
Description: as §3
Mice were then monitored for mortality and clinical signs including respiratory activity, body weight, hydration, behavior (self-biting and circling), and pain assessment (Facial Grimace) to determine the maximum tolerated dose.

[11] = morphine s.c. 10 mg/kg, hot-plate

T1 sequence (P41143 whole entry): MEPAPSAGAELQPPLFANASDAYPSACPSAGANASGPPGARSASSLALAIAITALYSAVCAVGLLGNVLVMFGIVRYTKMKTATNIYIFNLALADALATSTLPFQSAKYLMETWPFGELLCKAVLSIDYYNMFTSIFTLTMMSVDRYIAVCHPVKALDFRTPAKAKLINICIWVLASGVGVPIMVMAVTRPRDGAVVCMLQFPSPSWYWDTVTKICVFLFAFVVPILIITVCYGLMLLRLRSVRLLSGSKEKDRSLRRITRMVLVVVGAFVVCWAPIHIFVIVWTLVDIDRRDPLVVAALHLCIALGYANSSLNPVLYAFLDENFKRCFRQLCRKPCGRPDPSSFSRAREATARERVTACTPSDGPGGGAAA

Compound: CCCCCC(=O)N[C@@H](Cc1ccc(O)cc1)C(=O)NCC(=O)NCC(=O)N[C@@H](Cc1ccccc1)C(=O)N[C@@H](CC(C)C)C(=O)OC [KK-93]
- Recovered Peptide after 1 h in Mouse Plasma [%] [1]: 85 ± 7%
- Antinociception (AUC0-5h, %MPE·h) (female CD-1 mice [2]; hot-plate): 51 ± 13 %MPE·h

Compound: COC(=O)[C@H](CC(C)C)NC(=O)[C@H](Cc1ccccc1)NC(=O)CNC(=O)CNC(=O)[C@H](Cc1ccc(O)cc1)NC(=O)C1CCCCC1 [KK-112]
- Recovered Peptide after 1 h in Mouse Plasma [%] [1]: 62 ± 4%
- Antinociception (AUC0-5h, %MPE·h) (female CD-1 mice [2]; hot-plate): 51 ± 10 %MPE·h

Compound: CC(C)C[C@H](NC(=O)[C@H](Cc1ccccc1)NC(=O)CNC(=O)CNC(=O)[C@@H](N)Cc1ccc(O)cc1)C(=O)O [Leu-ENK, Leu-Enkephalin]
- remaining at 5 h, 315 µmol/L [3]: > 80%
- intact peptide remaining in plasma after 5 h of incubation ([1]; 5 h, plasma): undetectable
- Recovered Peptide after 1 h in Mouse Plasma [%] [1]: 23 ± 3% and 23 ± 2%
- Antinociception (AUC0-5h, %MPE·h) (female CD-1 mice [2]; hot-plate): 14 %MPE·h and 14 ± 6 %MPE·h
- peak antinociception (female CD-1 mice [2]; s.c. 13 mg/kg, hot-plate): ~ 10 %MPE
- time of decline of antinociception to baseline (female CD-1 mice [2]; s.c. 13 mg/kg, hot-plate): 1.5 h
- time of peak antinociception post-injection (female CD-1 mice [2]; s.c. 13 mg/kg, hot-plate): 1 h

Compound: C=CCCC(=O)N[C@@H](Cc1ccc(O)cc1)C(=O)NCC(=O)NCC(=O)N[C@@H](Cc1ccccc1)C(=O)N[C@@H](CC(C)C)C(=O)OC [KK-105]
- Recovered Peptide after 1 h in Mouse Plasma [%] [1]: 80 ± 7%

Compound: CN1CC[C@]23c4c5ccc(O)c4O[C@H]2[C@@H](O)C=C[C@H]3[C@H]1C5 [morphine]
- time of peak effect (C57BL6 mice): 20 min
- decrease of respiratory rate compared with vehicle (female CD-1 mice [4]; morphine 10 mg/kg s.c., 30 min post-injection): 56%
- antinociception at 2 h (female CD-1 mice [2]; morphine s.c. 10 mg/kg, 2 h): ~ 10 %MPE
- maximum antinociception (female CD-1 mice [2]; [11]): 87 %MPE
- time to maximum antinociception (female CD-1 mice [2]; [11]): ≤ 15 min
- residual effect of morphine [5]: approximately 30%
- decrease of breathing rate (mice): 1.7 fold
- physical dependence, Nlx-induced withdrawal (female CD-1 mice [6]; morphine 10 mg/kg twice daily): significant withdrawal syndromes
- reduction of paw licking and biting time compared to control, phase 1 (female CD-1 mice [7]; phase 1 (0–5 min)): 30%
- nociceptive response, phase 2 (female CD-1 mice [7]; phase 2 (20–40 min)): completely diminished the nociceptive response

Compound: H2N-YGGFL-COOH
- fragment found [8]: H2N-GGFL-COOH, major; also recorded: H2N-FL-COOH, major
- cleaved bond (plasma): Tyr-Gly, first_seen; also recorded: Gly-Phe

Compound: COC(=O)[C@H](CC(C)C)NC(=O)[C@H](Cc1ccccc1)NC(=O)CNC(=O)CNC(=O)[C@H](Cc1ccc(O)cc1)NC(=O)Cc1ccccc1 [KK-81]
- Recovered Peptide after 1 h in Mouse Plasma [%] [1]: 88 ± 7%
- Relative Binding to DOR Compared to Leu-ENK [%] (human DOR): 41 ± 25%

Compound: COC(=O)[C@H](CC(C)C)NC(=O)[C@H](Cc1ccccc1)NC(=O)CNC(=O)CNC(=O)[C@H](Cc1ccc(O)cc1)NC(C)=O [KK-14]
- Recovered Peptide after 1 h in Mouse Plasma [%] [1]: 82 ± 5%

Compound: COC(=O)[C@H](CC(C)C)NC(=O)[C@H](Cc1ccccc1)NC(=O)CNC(=O)CNC(=O)[C@H](Cc1ccc(O)cc1)NC(=O)C(C)(C)C [KK-102]
- Recovered Peptide after 1 h in Mouse Plasma [%] [1]: 94 ± 5% and 94 ± 3%
- half-life ([1]; mouse, plasma): 2.5 min
- increase of antinociception AUC compared to Leu-ENK (female CD-1 mice [2]; hot-plate, s.c. ~13 mg/kg): 8 fold
- Antinociception (AUC0-5h, %MPE·h) (female CD-1 mice [2]; hot-plate): 112 %MPE·h and 112 ± 24 %MPE·h

Compound: CCCCCCCC(=O)N[C@@H](Cc1ccc(O)cc1)C(=O)NCC(=O)NCC(=O)N[C@@H](Cc1ccccc1)C(=O)N[C@@H](CC(C)C)C(=O)OC [KK-108]
- Recovered Peptide after 1 h in Mouse Plasma [%] [1]: 73 ± 4%
- Antinociception (AUC0-5h, %MPE·h) (female CD-1 mice [2]; hot-plate): 48 ± 15 %MPE·h

Compound: CC(C)C[C@H](NC(=O)[C@H](Cc1ccccc1)NC(=O)CNC(=O)CNC(=O)[C@H](Cc1ccc(O)cc1)NC(=O)C(C)(C)C)C(=O)O [KK-103]
- remaining at 5 h, 315 µmol/L [3]: > 95%
- Recovered Peptide after 1 h in Mouse Plasma [%] [1]: 93 ± 1%
- extrapolated plasma half-life ([1]; mouse plasma in vitro, extrapolated from 5 h incubation): 37 h
- remaining at 5 h, 315 µmol/L ([1]; mouse, pooled mouse K2EDTA plasma, 5 h, plasma, read-out: intact peptide remaining in plasma after 5 h of incubation): > 90%
- increase of plasma half-life over Leu-ENK ([1]; plasma in vitro): ~ 90 fold and 90 fold
- respiration rate versus vehicle (female CD-1 mice [4]; KK-103 13 mg/kg s.c., 30 to 240 min): comparable to that of mice treated with vehicle
- clinical health score (CHS) (female CD-1 mice [9]): 0
- physical dependence, Nlx-induced jumps in first 10 min (female CD-1 mice [6]; KK-103 13 mg/kg twice daily): not a single jump was observed
- abnormal behaviors / clinical scores at maximum deliverable dose (female CD-1 mice [10]; s.c. 650 mg/kg): did not show any signs of abnormal behaviors
- maximum deliverable dose (safe) (female CD-1 mice [10]; s.c., limited by solubility): 650 mg/kg
